For one cell line, relative viability results are on record in the supplement of paper PMC10307832.

What all share (test): relative viability (nuclei count vs DMSO), 5 days (fraction); higher = more cells survive
Compound in one experiment: Cc1ccc(C(=O)Nc2ccc(CN3CCN(C)CC3)c(C(F)(F)F)c2)cc1C#Cc1cnc2cccnn12 [Ponatinib]
The essentials: (§1)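 In 1536-well plates, lung cancer cell lines rested overnight at 37 °C before five library-drug doses (not always all listed), √10 apart, were pinned onto vehicle-anchored plates. Nuclei were counted with MetaXpress from 4× Hoechst images taken after 5 days without medium change. Viability compares treated-well with vehicle-well nuclei as a median over plates, and plates needed control CV below 25% plus at least one doubling to pass.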

Compound in another experiment: Cc1ccc(Nc2nccc(N(C)c3ccc4c(C)n(C)nc4c3)n2)cc1S(N)(=O)=O [Pazopanib]
A digest of the protocol: as §1

Compound in the experiment “Ponatinib + Foretinib”: Cc1ccc(C(=O)Nc2ccc(CN3CCN(C)CC3)c(C(F)(F)F)c2)cc1C#Cc1cnc2cccnn12 [Ponatinib] + COc1cc2c(Oc3ccc(NC(=O)C4(C(=O)Nc5ccc(F)cc5)CC4)cc3F)ccnc2cc1OCCCN1CCOCC1 [Foretinib] (partner 0.25 µM)
The essentials: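 Relative viability was taken as the ratio of nuclei in treated wells to nuclei in vehicle wells. Lung cancer cell lines in 1536-well plates received compounds by pin tool one day after seeding, either one drug alone or a fixed anchor-drug dose plus five library-drug doses (not always all listed) in √10 steps. Nuclei were counted on 4× images after 5 days of treatment, and values are medians of duplicate plates.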

On to UMC-11, for which the relative viability with Ponatinib (0.002 µM) worked out at 0.914; with Ponatinib (0.006325 µM), 0.945; with Ponatinib (0.06325 µM), 1.07; in the experiment with Ponatinib (0.2 µM), 0.99; in the experiment with Pazopanib (0.01 µM), 0.828; with Pazopanib (0.03162 µM) it was 1.01. In addition, the relative viability with Pazopanib (0.1 µM) is 1.01; with Pazopanib (0.3162 µM), 1.03; with Pazopanib (1 µM), 1.11; with Ponatinib + Foretinib (first compound 0.002 µM) it was 1.06; with Ponatinib + Foretinib (first compound 0.006325 µM), 1.04; in the experiment with Ponatinib + Foretinib (first compound 0.06325 µM) it was 1.25. In addition, the relative viability with Ponatinib + Foretinib (first compound 0.2 µM) was 1.03.
